Data reported in ChEMBL document CHEMBL1201862, “PubChem BioAssay data set” (2004).
Calls of active or inactive are those of the source.

Columns and labels:
[1] = test system: Vero; experiment: Vero cell viability after compound exposure – synthesized analogs, set II, cytotoxicity control for West Nile virus antiviral project, SAR follow-up (AID 2402); format: functional; conditions: Chlorocebus sabaeus
[2] = molecular target: Luciferin 4-monooxygenase (Photinus pyralis, UniProt P08659); experiment: Counter Screen for Luciferase-based Assay Positives. [Related pubchem assays: 620, 618, 411 ]
Chain of Luciferin 4-monooxygenase (P08659 whole entry): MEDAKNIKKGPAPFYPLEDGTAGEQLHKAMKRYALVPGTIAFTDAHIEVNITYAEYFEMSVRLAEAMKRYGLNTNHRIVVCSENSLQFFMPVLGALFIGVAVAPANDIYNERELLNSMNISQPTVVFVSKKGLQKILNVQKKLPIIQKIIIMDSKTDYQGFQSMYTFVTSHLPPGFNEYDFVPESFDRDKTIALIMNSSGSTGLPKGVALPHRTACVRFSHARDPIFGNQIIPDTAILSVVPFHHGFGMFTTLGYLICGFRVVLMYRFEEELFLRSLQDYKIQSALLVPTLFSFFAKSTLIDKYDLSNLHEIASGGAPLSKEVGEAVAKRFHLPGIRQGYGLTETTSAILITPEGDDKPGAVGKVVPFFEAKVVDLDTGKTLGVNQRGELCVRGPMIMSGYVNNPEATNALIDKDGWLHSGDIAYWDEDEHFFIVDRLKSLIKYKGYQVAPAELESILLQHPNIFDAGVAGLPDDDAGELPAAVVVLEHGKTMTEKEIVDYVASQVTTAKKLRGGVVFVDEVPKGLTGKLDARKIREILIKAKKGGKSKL

[3] = test system: HT-1080; experiment: HT1080 cell viability loss – fluorescence readout (AID 620); format: functional, cell-based; conditions: Homo sapiens
[4] = molecular target: T1, Bcl-2-related protein A1 (Mus musculus, UniProt Q07440); experiment: small-molecule antagonists of Bfl-1/BH3 interaction – biochemical, TR-FRET, mouse Bfl-1, confirmation (AID 621);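 further: TR-FRET binding of GST-Bfl-1 to FITC-labelled Bid peptide via terbium antibody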
T1 sequence (Q07440 whole entry): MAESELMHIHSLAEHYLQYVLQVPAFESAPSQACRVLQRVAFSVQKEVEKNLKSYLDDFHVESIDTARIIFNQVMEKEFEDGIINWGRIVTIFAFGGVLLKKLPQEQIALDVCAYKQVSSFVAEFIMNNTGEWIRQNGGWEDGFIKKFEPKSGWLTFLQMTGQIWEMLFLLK

[5] = molecular target: T1, Bcl-2-related protein A1; experiment: displacement of Bid BH3 peptide from Bfl-1 – biochemical, fluorescence polarization, FITC-Bid, mouse, primary screen (AID 432)
[6] = test system: Streptococcus sp. 'group A'; experiment: Streptococcus pyogenes SK(-)GAS viability under kanamycin – luminescence, BacTiterGlo, confirmation, counter-screen for streptokinase expression inhibitor project, dose response (AID 1900); format: functional, organism-based
[7] = Luminescence Cell-Based Dose Retest to Confirm Inhibitors of Cancer Stem Cells. [Related pubchem assays (depositor defined):AID2717, AID2721]; format: functional; conditions: Homo sapiens
[8] = antiviral protection against BTV-induced cell death – arbovirus, BSR cells, confirmation (AID 1250); format: functional;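 further: protection from viral cytopathic effect measured as cell viability by ATP luminescence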
[9] = test system: Streptococcus; experiment: GAS UMAA2166 growth inhibition – luminescence, BacTiterGlo, counter-screen for streptokinase expression inhibitor project, dose response (AID 1915); format: functional, organism-based;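 further: potency for reduction of bacterial viability or growth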
[10] = molecular target: T2, Streptokinase A (Streptococcus pyogenes serotype M1, UniProt P10520); experiment: viability-normalized secreted streptokinase activity reduction – plasminogen activation absorbance, OD405, dose response (AID 1914); format: functional, Streptococcus pyogenes M1 GAS;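 further: secreted streptokinase activity via plasminogen activation per viability signal from cell pellet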
T2 sequence (P10520 whole entry): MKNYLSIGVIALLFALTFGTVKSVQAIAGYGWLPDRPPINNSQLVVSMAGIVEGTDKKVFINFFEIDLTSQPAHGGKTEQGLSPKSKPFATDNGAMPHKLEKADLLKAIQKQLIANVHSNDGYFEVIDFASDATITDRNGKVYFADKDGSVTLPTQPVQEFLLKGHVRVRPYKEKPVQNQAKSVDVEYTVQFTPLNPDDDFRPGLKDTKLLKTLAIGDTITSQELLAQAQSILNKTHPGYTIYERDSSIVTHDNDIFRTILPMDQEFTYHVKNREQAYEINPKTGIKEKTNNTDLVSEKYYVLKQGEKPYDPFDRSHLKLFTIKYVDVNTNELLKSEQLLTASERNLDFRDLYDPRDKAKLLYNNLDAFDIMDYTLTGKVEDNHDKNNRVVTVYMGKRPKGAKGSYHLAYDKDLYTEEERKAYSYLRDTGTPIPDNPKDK

[11] = molecular target: T3, Neuropeptides B/W receptor type 1 (Homo sapiens, UniProt P48145); experiment: Fluorescence-based dose response cell-based high throughput screening assay to identify antagonists of the G-protein coupled receptor 7 (GPR7). [Related pubchem assays: 1952 (Screening assay (GPR7 antagonists).), 1880 (Summary AID.)]; format: functional
T3 sequence (P48145 whole entry): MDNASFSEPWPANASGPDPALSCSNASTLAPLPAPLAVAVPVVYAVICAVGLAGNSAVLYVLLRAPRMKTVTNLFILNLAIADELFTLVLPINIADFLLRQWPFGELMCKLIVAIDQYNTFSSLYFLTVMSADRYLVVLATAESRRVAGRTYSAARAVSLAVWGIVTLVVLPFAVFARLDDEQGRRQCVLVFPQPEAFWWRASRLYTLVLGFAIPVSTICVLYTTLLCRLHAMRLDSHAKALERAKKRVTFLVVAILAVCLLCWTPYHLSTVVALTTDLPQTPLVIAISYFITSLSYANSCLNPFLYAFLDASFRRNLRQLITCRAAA

[12] = molecular target: Melanin-concentrating hormone receptor 1 (Homo sapiens, UniProt Q99705); experiment: Fluorescence-based counterscreen for antagonists of the G-protein coupled receptor 7 (GPR7): cell-based high throughput dose response assay to identify antagonists of the melanin-concentrating hormone receptor 1 (MCHR1).; format: functional
Chain of Melanin-concentrating hormone receptor 1 (Q99705 whole entry): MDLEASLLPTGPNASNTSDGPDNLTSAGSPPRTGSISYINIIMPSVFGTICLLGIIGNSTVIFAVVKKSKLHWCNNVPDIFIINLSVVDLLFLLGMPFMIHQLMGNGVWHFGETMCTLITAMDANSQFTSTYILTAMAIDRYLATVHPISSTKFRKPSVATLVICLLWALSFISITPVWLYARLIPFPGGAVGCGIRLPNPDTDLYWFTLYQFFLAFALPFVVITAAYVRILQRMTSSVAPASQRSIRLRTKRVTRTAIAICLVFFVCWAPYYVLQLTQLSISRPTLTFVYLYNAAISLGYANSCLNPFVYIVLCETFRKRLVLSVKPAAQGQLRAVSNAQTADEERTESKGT

[13] = molecular target: T1, Bcl-2-related protein A1; experiment: Bfl-1 binding inhibitors, SAR follow-up, biochemical, fluorescence polarization (AID 1070)
[14] = decrease of insulin promoter-GFP reporter – imaging, high-content screening, mouse beta cells (AID 1628); format: functional; conditions: MIN6
[15] = test system: BJ; experiment: BJ-TERT-LT-ST fibroblast viability loss – cell-based, RAS-independent, luminescence, dose response (AID 1935); format: functional; conditions: Homo sapiens;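 further: BJ fibroblasts immortalized with TERT plus LT and ST oncogenes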
[16] = test system: BJ; experiment: cells; format: functional, cell-based; conditions: Homo sapiens
[17] = test system: BJ; experiment: growth inhibition of engineered Ras-driven BJ cells – cell-based, alamar blue fluorescence, cherrypicked samples, dose response (AID 2631); format: functional; conditions: Homo sapiens;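 further: confirmatory dose-response assay in RAS-dependent BJ fibroblasts engineered with TERT, LT and ST, with cytotoxicity read by fluorescence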
[18] = test system: BJ; experiment: BJ-TERT fibroblast viability loss – cell-based, RAS-independent, luminescence, dose response (AID 1933); format: functional; conditions: Homo sapiens
[19] = Luminescence-based dose response cell-based high throughput screening assay for cytotoxic compounds using the IEC-6 intestinal epithelial cell line. [Related pubchem assays: 1858 (Summary AID.), 1825 (Counterscreen.), 1907 (Confirmation screen.)]; format: functional
[20] = test system: INS1; experiment: INS-1E survival protection against cytokine death – cell-based, luminescence, retest, dose response (AID 449756); format: functional; conditions: Rattus norvegicus;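 further: cell death triggered by IL-1 beta plus TNF-alpha plus IFN-gamma mixture; protective hits raise ATP signal compared with cytokine alone wells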
[21] = DRD fibroblast viability loss – cell-based, non-viral oncogenic, luminescence, dose response (AID 1934); format: functional; conditions: Homo sapiens
[22] = molecular target: Paired box protein Pax-8 (Homo sapiens, UniProt Q06710); experiment: PAX8 transcriptional activity inhibition in RMG-I – RMG-I cells, luciferase, cherry-pick, dose response (AID 687027); format: functional, cell-based;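 further: luciferase reporter driven by Pax8 target thyroperoxidase promoter measured by SteadyGlo luminescence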
Chain of Paired box protein Pax-8 (Q06710 whole entry): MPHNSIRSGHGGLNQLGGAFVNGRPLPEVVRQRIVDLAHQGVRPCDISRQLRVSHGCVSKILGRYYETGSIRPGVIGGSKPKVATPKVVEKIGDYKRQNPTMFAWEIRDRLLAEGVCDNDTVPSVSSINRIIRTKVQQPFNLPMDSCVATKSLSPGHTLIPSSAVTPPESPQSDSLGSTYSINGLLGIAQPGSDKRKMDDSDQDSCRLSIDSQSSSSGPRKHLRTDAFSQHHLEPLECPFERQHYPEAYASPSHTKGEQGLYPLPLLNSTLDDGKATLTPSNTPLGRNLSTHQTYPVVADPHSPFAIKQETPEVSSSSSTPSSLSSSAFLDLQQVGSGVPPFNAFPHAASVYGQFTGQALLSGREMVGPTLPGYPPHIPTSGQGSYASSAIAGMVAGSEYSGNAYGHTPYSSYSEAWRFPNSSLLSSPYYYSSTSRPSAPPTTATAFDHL

[23] = MIN6 cell viability loss – mouse insulinoma, cytotoxicity control, dose response (AID 2122); format: functional;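 further: confirmatory high-throughput counterscreen run to flag cytotoxic compounds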

In the case of `CC1CC(C)CN(C(=O)CSc2nc3ccccc3c(=O)n2-c2ccc(F)cc2)C1` (centres undefined), the CC50 [1] is reported as > 100 µM (active).
In the case of `Cc1ccc(-c2nc3cc(N)ccc3o2)cc1`, the EC50 [2] is reported as 4.68 µM (active) and the EC50 [3] is reported as > 50 µM (not active).
In the case of `Cc1cc(C)c2c3c(c(-c4ccccc4)n2n1)c(=O)n(C)c(=O)n3C`, the IC50 [4] is reported as > 100 µM (not active) and the IC50 [5] is reported as > 100 µM (not active).
With `Cc1ccc(-c2csc3ncnc(NS(=O)(=O)c4ccc(Cl)cc4)c23)cc1` the EC50 [6] was 4.44 µM (active), the AC50 [7] was 9.42 µM (active) and the IC50 [8] was 35.5 µM (active). For the same compound, the EC50 [9] was 66.7 µM (active) and the EC50 [10] was 16.2 µM (active).
In the case of `CCC(C)(C(=O)NC1CCCC1)N(Cc1ccco1)C(=O)c1ccc2c(c1)OCO2` (centres undefined), the IC50 [11] is reported as > 43.8 µM (not active) and the IC50 [12] is reported as > 43.8 µM (not active).
For `Cc1ccc(-n2nnc(-c3cc4ccccc4nc3Cl)n2)cc1`, the IC50 [4] was > 100 µM (not active) and the IC50 [13] was > 100 µM (not active).
For `CCOc1ccc(C(=O)c2cc([N+](=O)[O-])ccc2N2CCOCC2)cc1`, the IC50 [14] was 0.263 µM (active), the EC50 [15] was 0.401 µM (inconclusive) and the EC50 [16] was 0.632 µM (active). For the same compound, the EC50 [17] was < 0.104 µM (active), the EC50 [18] was 0.406 µM (active) and the IC50 [19] was 0.0558 µM (active). The AC50 [20] was 0.775 µM (active), the EC50 [21] was 0.358 µM (active) and the AC50 [22] was < 0.26 µM (active). For the same compound, the IC50 [23] was < 0.25 µM (active).
